# From patent publication US12582618B2, “Bis-biguanide compounds, pharmaceutical compositions and uses in managing cancer” (Emory University, priority 2019, dated 2026)
# Tested on: leader cell sub-population (H1299 leader cells)
# Assay: drug screening of rare lung cancer cells isolated by spatiotemporal genomic and cellular analysis (SaGA)
# Type: cell-based, human
# Conditions: rare lung cancer cells identified by SaGA, then drug screening; see FIG. 2A
# From the text: See e.g., Burrell et al., Nature, 2013, 501:338-345. Spatiotemporal genomic and cellular analysis (SaGA) is a technique which involves a combination of microscopy and genomics to isolate rare cells. See Konen et al. Nat Comm, 2017, 8:15078. Dendra2 is a photoconvertible fluorophore which emits green fluorescence. However, when excited by 405 nm light, green fluorescence is converted to red fluorescence due to cleavage of a histidine. Therefore, with single cell precision, any cancer cell expressing Dendra2 can be optically highlighted (turned red) using a point scanning confocal microscope. A region of interest is drawn around the cell(s) of interest, based upon by transmitted light or fluorescent protein tags. This region can be exposed to a 405 nm laser, resulting in near instantaneous photoconversion of Dendra2, and photomarking the cell red. Single cells can be photoconverted, without inducing any measurable photoconversion of neighboring cells. Cells are extracted from the 3-D environment using dispase for 15 minutes (collagenase for collagen). Cells are then sorted to separate red photoconverted cells from green cells using a FACS. Isolated cells are grown in culture using standard cell culture techniques. Spatiotemporal genomic and cellular analysis (SaGA) was used to identify rare lung cancer cells which were then subject to drug screening.
structure (smiles),measurement,value
"CCCCC(CC)CNC(=N)NC(=N)NCCCCCCNC(=N)NC(=N)NCC(CC)CCCC (stereo not shown) [alexidine, 1,1′-(hexane-1,6-diyl)bis(5-(2-ethylhexyl)biguanidine)]",effect on metastasis / invasive cell pack,disrupt metastasis by targeting a rare cell type within the invasive cell pack
